# According to BindingDB's records for doi:10.1124/jpet.102.47407 (University of Tennessee, 2003):
# pKi: −log10 of the molar value. Where “and” joins values, the source holds several entries; their conditions need not be identical. Equal values may be shown once.
# Target: T1, cAMP-specific 3',5'-cyclic phosphodiesterase 4B (Rattus norvegicus, UniProt P14646)
# T1 sequence (P14646 whole entry): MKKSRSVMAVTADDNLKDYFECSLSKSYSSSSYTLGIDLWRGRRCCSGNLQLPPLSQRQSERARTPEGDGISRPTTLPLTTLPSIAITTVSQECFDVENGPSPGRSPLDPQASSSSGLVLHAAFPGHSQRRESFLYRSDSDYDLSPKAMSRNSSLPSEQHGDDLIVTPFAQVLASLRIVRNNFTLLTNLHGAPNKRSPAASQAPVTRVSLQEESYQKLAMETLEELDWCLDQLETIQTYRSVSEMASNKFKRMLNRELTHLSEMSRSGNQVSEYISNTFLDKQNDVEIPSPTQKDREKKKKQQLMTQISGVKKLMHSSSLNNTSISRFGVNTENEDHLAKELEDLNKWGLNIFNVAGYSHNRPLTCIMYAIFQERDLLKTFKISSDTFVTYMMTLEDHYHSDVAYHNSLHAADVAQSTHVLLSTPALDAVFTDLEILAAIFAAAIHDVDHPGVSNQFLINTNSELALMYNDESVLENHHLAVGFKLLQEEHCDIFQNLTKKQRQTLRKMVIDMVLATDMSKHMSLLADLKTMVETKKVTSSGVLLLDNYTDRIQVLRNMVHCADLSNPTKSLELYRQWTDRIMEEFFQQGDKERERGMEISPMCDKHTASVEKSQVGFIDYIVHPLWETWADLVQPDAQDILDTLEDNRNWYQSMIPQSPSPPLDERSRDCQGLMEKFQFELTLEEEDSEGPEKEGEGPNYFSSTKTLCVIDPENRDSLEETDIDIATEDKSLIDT
row,SMILES,pKi
1,COc1ccc(Cc2nccc3cc(OC)c(OC)cc23)cc1OC,< 5.00 and 5.05
2,"CC(C)Cn1c(=O)n(C)c(=O)c2[nH]cnc21 [1-methyl-3-(2-methylpropyl)-2,3,6,7-tetrahydro-1H-purine-2,6-dione]",5.08 and 5.51
3,COc1ccc(C(Cc2ccncc2)c2ccccc2)cc1OC1CCCC1 (configuration not stated) [CDP 840],6.05 and 5.90
4,Cc1[nH]c(=O)c(C#N)cc1-c1ccncc1 [Milrinone],< 5.00
5,CCOC(=O)C1=CC2(CC)CCCN3CCc4c(n1c1ccccc41)C32 (configuration not stated) [NSC_443955],6.00

# Further lines, results first:
row,pKi,SMILES
1,< 5.00 and 5.50,COc1cc2c(cc1OC)-c1c/c(=N\c3c(C)cc(C)cc3C)n(C)c(=O)n1CC2 [CAS_5537]
2,8.52 and 8.62,O=C(Nc1c(Cl)cncc1Cl)c1ccc(OC(F)F)c(OCC2CC2)c1 [DAXAS]
